Experimental data from patent US6333340A, “Small molecule sulfonamides for vision and memory disorders” (Gpi Nil Holdings, Inc., priority 1998, dated 2001).
Where two headings read alike, the source gives them in different places.

Experiments:
[1] = tested on: retinal ganglion cell axons; experiment: Protection of retinal ganglion cell axons from degeneration following optic nerve transection, RT 97 axon density (Table V); assay type: in vivo
Text: Efficacy of representative compounds from different immunophilin ligand series in protecting retinal ganglion cell axons from degeneration following optic nerve transection is set forth in Table V.

[2] = Clearance (comments of Table V); assay type: in vitro ADME
[3] = target: FKBP12 (Homo sapiens, UniProt P62942); experiment: Inhibition of peptidyl-prolyl isomerase (rotamase) activity of FKBP, chymotrypsin-coupled assay; assay type: biochemical
Text: The inhibition of the prolyl peptidyl cis-trans isomerase activity of FKBP may be measured as an indicator of this affinity.
Inhibition of the peptidyl-prolyl isomerase (rotamase) activity of the compounds used in the inventive methods and pharmaceutical compositions can be evaluated by known methods described in the literature (Harding et al., Nature, 1989, 341:758-760; Holt et al. J. Am. Chem. Soc., 115:9923-9938). These values are obtained as apparent Ki 's and are presented for representative compounds in TABLE B.
The cis-trans isomerization of an alanine-proline bond in a model substrate, N-succinyl-Ala-Ala-Pro-Phe-p-nitroanilide, is monitored spectrophotometrically in a chymotrypsin-coupled assay, which releases para-nitroanilide from the trans form of the substrate. The inhibition of this reaction caused by the addition of different concentrations of inhibitor is determined, and the data is analyzed as a change in first-order rate constant as a function of inhibitor concentration to yield the apparent Ki values.
In a plastic cuvette are added […] of ice cold assay buffer (25 mM HEPES, pH 7.8, 100 mM NaCl), 10 mL of FKBP (2.5 mM in 10 mM Tris-Cl pH 7.5, 100 mM NaCl, 1 mM dithiothreitol), 25 mL of chymotrypsin (50 mg/ml in 1 mM HCl) and […] of test compound at various concentrations in dimethyl sulfoxide. The reaction is initiated by the addition of 5 mL of substrate (succinyl-Ala-Phe-Pro-Phe-para-nitroanilide, 5 mg/mL in 2.35 mM LiCl in trifluoroethanol).
The absorbance at 390 nm versus time is monitored for 90 seconds using a spectrophotometer and the rate constants are determined from the absorbance versus time data files.

[4] = apparent Ki, Table B, read-out: Ki

FKBP12, sequence (P62942 whole entry): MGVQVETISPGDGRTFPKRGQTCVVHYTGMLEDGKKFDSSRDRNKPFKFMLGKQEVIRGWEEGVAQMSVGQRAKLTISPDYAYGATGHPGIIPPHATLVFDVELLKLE

CCC(C)(C)C(=O)C(=O)N1CCCC[C@H]1C(=O)SCCC(c1ccccc1)c1ccccc1 [K]
RT 97 RCC axon density 11 days after ON transection (36 ON axon rescued) [1]: 13.0%
Clearance [2]: 4.5 µL/min

CCC(C)(C)C(=O)C(=O)N1CCC[C@H]1C(=O)SCCC(c1ccccc1)c1ccccc1 [M]
RT 97 RCC axon density 11 days after ON transection (36 ON axon rescued) [1]: -6.3%
Clearance [2]: 12.5 µL/min

CN(C)C(=O)N1CCC[C@H]1C(=O)SCCCc1ccccc1 [N]
Clearance [2]: 21.9 µL/min

CCC(C)(C)C(=O)C(=O)N1CCS[C@H]1C(=O)OCCCc1cccnc1 [F]
Ki ([3]; Table V, read-out: Ki rotomase): 272 nM
RT 97 RCC axon density 11 days after ON transection (36 ON axon rescued) [1]: 55.1%

CCC(C)(C)C(=O)C(=O)N1CCCC[C@H]1C(=O)CCCCc1cccnc1 [J]
Ki ([3]; Table V, read-out: Ki rotomase): 210 nM
RT 97 RCC axon density 11 days after ON transection (36 ON axon rescued) [1]: 15.8%
Clearance [2]: 1.5 µL/min

CCC(C)(C)C(=O)C(=O)N1CCC[C@H]1C(=O)O [L]
RT 97 RCC axon density 11 days after ON transection (36 ON axon rescued) [1]: 7.8%
Clearance [2]: 5.2 µL/min

Cc1ccc(S(=O)(=O)N2CCCCC2C(=O)OC(CCCc2ccccc2)CCCc2ccccc2)cc1 (stereo not shown) [Compound 3, 1,7-diphenyl-4-heptyl-N-(para-toluene-sulfonyl)pipecolate]
Ki [3, 4]: 107 nM

CCC(C)(C)C(=O)C(=O)N1CCCC[C@H]1C(=O)O [G]
RT 97 RCC axon density 11 days after ON transection (36 ON axon rescued) [1]: 34.0%

O=C(SCCCc1ccccc1)[C@@H]1CCCN1S(=O)(=O)Cc1ccccc1 [C]
RT 97 RCC axon density 11 days after ON transection (36 ON axon rescued) [1]: 60.4%
Clearance [2]: 31.1 µL/min

CCC(C)(C)C(=O)CN1CCCCC1C(=O)OC(CCc1ccccc1)CCc1ccccc1 (stereo not shown) [E]
RT 97 RCC axon density 11 days after ON transection (36 ON axon rescued) [1]: 56.6%
Clearance [2]: 42.8 µL/min

CCC(C)(C)C(=O)C(=O)N1CCCC[C@H]1C(=O)O [H]
RT 97 RCC axon density 11 days after ON transection (36 ON axon rescued) [1]: 30.3%

O=C(SCCCc1ccccc1)[C@@H]1CCCN1C(=O)NC12CC3CC(CC(C3)C1)C2 [B]
RT 97 RCC axon density 11 days after ON transection (36 ON axon rescued) [1]: 100%

O=C(OCCCCc1ccccc1)[C@@H]1CCCCN1S(=O)(=O)Cc1ccccc1 [D]
RT 97 RCC axon density 11 days after ON transection (36 ON axon rescued) [1]: 58.4%

O=C(OCCCCc1ccccc1)C1CCCCN1S(=O)(=O)c1ccccc1 (stereo not shown) [Compound 6, 4-phenyl-1-butyl-N-(benzene-sulfonyl)pipecolate]
Ki [3, 4]: 470 nM

O=C(OCCCc1cccnc1)[C@@H]1CCCN1C(=S)NC1CCCCC1 [I]
RT 97 RCC axon density 11 days after ON transection (36 ON axon rescued) [1]: 23.8%
Clearance [2]: 8.0 µL/min

Cc1ccc(S(=O)(=O)N2CCCCC2C(=O)OCCCCc2ccccc2)cc1 (stereo not shown) [Compound 5, 4-phenyl-1-butyl-N-(para-toluene-sulfonyl)pipecolate]
Ki [3, 4]: 504 nM
